Experimental data: patent publication US9089569B2, “1,2,6-substituted benzimidazoles as flap modulators” (JANSSEN PHARMACEUTICA NV, priority 2013, dated 2015)
Counter-ions that a name gives are not always drawn.

Tests used:
[1] = test system: leukotriene pathway in human whole blood (LTB4); test: Human whole blood assay (LTB4, A23187-stimulated); format: cell-based; details: human whole blood diluted 1:1, calcium ionophore A23187 stimulation, LTB4 levels
Protocol: An in vitro cellular assay was performed using human whole blood collected in heparin-containing tubes, which was used to test the ability of compounds to modulate the leukotriene pathway in human whole blood. The blood was diluted 1:1 in RPMI medium, pre-incubated for 15 min at 37° Celsius with test compounds at various concentrations, and then stimulated with calcium ionophore, A23187 (7 μg/mL), for 30 min at 37° Celsius. The samples were then centrifuged and plasma was removed. The plasma was diluted in assay buffer and LTB4 levels were measured using a commercial kit (Enzo Life Sciences). The concentration of each compound that was required for half-maximal inhibition (modulation) of […] (IC50) was calculated by a 4-parameter equation using the program GraphPad Prism (GraphPad software). For analysis, data are imported into 3DX and aggregated as the average of duplicates of the calculated ratios in order to calculate Ki and IC50 values. Numbers in parentheses are the number of runs for the assay.

human FLAP = human FLAP (Homo sapiens (Human), UniProt P20292); test: FLAP binding assay (HTRF); details: wild type FLAP-containing membranes, HTRF format
Protocol: The assay below is used to test the modulatory activity of compounds against FLAP. Human and mouse FLAP-encoding DNA was amplified by polymerase chain reaction and cloned into pFastBac1 (Invitrogen) with a NH2-terminal 6-His tag for expression in Spodoptera frugiperda (Sf-9) cells. FLAP-containing membranes were prepared as was a FITC-labeled FLAP modulator (3-(3-(tert-butylthio)-1-(4-chlorobenzyl)-5-(quinolin-2-ylmethoxy)-1H-indol-2-yl)-2,2-dimethylpropanoic acid). The FLAP binding assay is performed in HTRF format (homogeneous time resolved fluorescence). […] The reaction is allowed to proceed for two hours after which the plate is read on an Envision plate reader in HTRF mode. Data are expressed as a HTRF ratio.
For human FLAP binding assays, data are analyzed with 3DX Explorer software. […] For analysis, data from multiple runs are averaged and each compound may be tested in 2 to 20 runs. Each run comprises two plates and each plate includes duplicates. Data from each plate is averaged and data are imported into 3DX. The data from multiple runs are aggregated as the average of duplicates of the calculated ratios in order to calculate Ki and IC50 values. Numbers in parentheses are the number of runs for the assay.

Chain of human FLAP (P20292 whole entry): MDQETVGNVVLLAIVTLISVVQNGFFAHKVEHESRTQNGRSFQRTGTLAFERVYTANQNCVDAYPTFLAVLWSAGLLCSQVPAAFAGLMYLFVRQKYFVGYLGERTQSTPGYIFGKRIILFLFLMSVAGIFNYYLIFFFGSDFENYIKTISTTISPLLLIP

SMILES	IC50 [1] [nM]	other results
Cc1ccc(COc2ccc3nc([C@@H]4[C@H](C(=O)O)C4(C)C)n(Cc4ccc(OC(F)(F)F)cc4)c3c2)nc1 (racemic) [Example 25, racemic cis-2,2-Dimethyl-3-{6-[(5-methylpyridin-2-yl)methoxy]-1-[4-(trifluoromethoxy)benzyl]-1H-benzimidazol-2-yl}cyclopropanecarboxylic acid]	3120	
Cc1ccc(COc2ccc3nc([C@H]4CCCC[C@H]4C(=O)O)n(Cc4ccc(OC(F)(F)F)c(Cl)c4)c3c2)nc1 (racemic) [Example 32, racemic cis-2-{1-[3-Chloro-4-(trifluoromethoxy)benzyl]-6-[(5-methylpyridin-2-yl)methoxy]-1H-benzimidazol-2-yl}cyclohexanecarboxylic acid]	210	
Cn1ccc(COc2cc3c(cc2F)nc([C@@H]2CCCC[C@@H]2C(=O)O)n3Cc2ccc(OC(F)(F)F)cc2F)n1 (racemic) [Example 90, racemic cis-2-{5-Fluoro-1-[2-fluoro-4-(trifluoromethoxy)benzyl]-6-[(1-methyl-1H-pyrazol-3-yl)methoxy]-1H-benzimidazol-2-yl}cyclohexanecarboxylic acid]		Ki (human FLAP): 27 nM
Cn1ccc(COc2cc(F)c3nc(C4CCCC[C@@H]4C(=O)O)n(Cc4ccc(N5CC(F)(F)C5)cc4)c3c2)n1 (mixture of isomers) [Example 168, racemic cis-2-{1-[4-(3,3-Difluoroazetidin-1-yl)benzyl]-4-fluoro-6-[(1-methyl-1H-pyrazol-3-yl)methoxy]-1H-benzimidazol-2-yl}cyclohexanecarboxylic acid as the formate salt]	3570	
Cn1ccc(COc2ccc3nc([C@@H]4CCCC[C@@H]4C(=O)O)n(Cc4ccc(OC(F)(F)F)cc4)c3c2)n1 (relative stereo) [Example 36, (1S*,2R*)-2-{6-[(1-Methyl-1H-pyrazol-3-yl)methoxy]-1-[4-(trifluoromethoxy)benzyl]-1H-benzimidazol-2-yl}cyclohexanecarboxylic acid]		IC50 ([1]; Homo sapiens): 590 nM
Cn1ccc(COc2ccc3nc([C@@H]4CCCC[C@@H]4C(=O)O)n(Cc4ccc(OC(F)(F)F)cc4)c3c2)n1 (relative stereo) [Example 45, (1R*,2S*)-2-{6-[(1-Methyl-1H-pyrazol-3-yl)methoxy]-1-[4-(trifluoromethoxy)benzyl]-1H-benzimidazol-2-yl}cyclohexanecarboxylic acid]		IC50 ([1]; Homo sapiens): > 10000 nM
CCC(CC)(Cc1nc2ccc(OCc3ccn(C)n3)cc2n1Cc1ccc(-c2ccc(C(F)(F)F)cc2)cc1)C(=O)O [Example 188, 2-ethyl-2-((6-((1-methyl-1H-pyrazol-3-yl)methoxy)-1-((4′-(trifluoromethyl)-[1,1′-biphenyl]-4-yl)methyl)-1H-benzo[d]imidazol-2-yl)methyl)butanoic acid]	550	
